In patent publication US10238713B2, “Cyclic tetrapeptides and therapeutic applications thereof” (LODZ UNIVERSITY OF TECHNOLOGY, priority 2010, dated 2019):
Non-standard residues stand in square brackets, D forms with d. Residues, ends and D or L forms follow the SMILES beside them. *: point of attachment. Oic = O=C(O)[C@@H]1C[C@@H]2CCCC[C@@H]2N1; β3hF = N[C@H](CC(=O)O)Cc1ccccc1; tBu = CC(C)(C)*

Each compound was assayed on PHA-induced proliferation of human peripheral blood mononuclear cells (PBMC) (assay: Proliferative response of PBMC to PHA (MTT)). Conditions: 10 μg/ml, four-day incubation; FIGS. 9A-9F.
Format: cell-based
Procedure: PBMC were isolated by centrifugation on Ficoll-uropoline gradient (density 1.077 g/ml) (Lymphoprep; PAA Laboratories), at 800×g for 20 min at 4° C. The interphase cells, consisting of lymphocytes (20%) and monocytes (80%) were then washed three times with Hanks' medium and re-suspended in the culture medium at density of 2×10^6 cells/ml.
The isolated PBMC were distributed into 96-well flat-bottom plates in 100 μl aliquots (2×10^5 cells/well). PHA was used at concentration of 5 μg/ml. The compounds were tested at concentrations of 1, 10 and 100 μg/ml. DMSO at appropriate dilutions served as control. After a four-day incubation in a cell culture incubator, the proliferative response of cells was determined by the colorimetric MTT method (Hansen et al., J. Immunol. Methods, 1989, pp. 203-210). The data are presented as a mean OD value from quadriplicate wells ±standard error (SE). The cultures “Control (−)” contained no mitogen (PHA). The cultures “Control (PHA)” contained PHA but not cyclic tetrapeptides.
Briefly, 25 μl of MTT (5 mg/ml) stock solution was added per well at the end of cell incubation and the plates were incubated for 3 h in a cell culture incubator. Then, 100 μl of the extraction buffer (20% SDS with 50% DMF, pH 4.7) was added. After additional overnight incubation, the optical density was measured at 550 nm (Dynatech 5000).

First: O=C1C[C@H](Cc2ccccc2)NC(=O)[C@@H]2C[C@@H]3CCCC[C@@H]3N2C(=O)[C@@H]2CCCN2C(=O)[C@H](Cc2ccccc2)N1 [I-Y] (cyclo(FP[Oic][β3hF]))
Second: CC(C)(C)OC[C@@H]1NC(=O)[C@H](Cc2ccccc2)NC(=O)C[C@H](Cc2ccccc2)NC(=O)[C@@H]2CCCN2C1=O [I-AL] (cyclo(FS(tBu)P[β3hF]))
The “PHA-induced PBMC proliferation, P vs DMSO at appropriate dilution” value of the first is lower: 0.0001 for the first, 0.2258 for the second.

`CC(C)(C)Oc1ccc(C[C@H]2CC(=O)N[C@@H](Cc3ccccc3)C(=O)N3CCC[C@H]3C(=O)N3CCC[C@H]3C(=O)N2)cc1` [I-AF] was tested, and the “PHA-induced PBMC proliferation, P vs DMSO at appropriate dilution” value was 0.9850.

Same assay, conditions: 100 μg/ml, four-day incubation; FIGS. 9A-9F

Compared with `O=C1C[C@H](Cc2ccccc2)NC(=O)[C@@H]2C[C@@H]3CCCC[C@@H]3N2C(=O)[C@@H]2CCCN2C(=O)[C@H](Cc2ccccc2)N1` [I-Y] (cyclo(FP[Oic][β3hF])), `CC(C)(C)OC[C@@H]1NC(=O)[C@H](Cc2ccccc2)NC(=O)C[C@H](Cc2ccccc2)NC(=O)[C@@H]2CCCN2C1=O` [I-AL] (cyclo(FS(tBu)P[β3hF])) is higher in “PHA-induced PBMC proliferation, P vs DMSO at appropriate dilution” value: 0.0001 for the first, 0.9976 for the second.

`CC(C)(C)Oc1ccc(C[C@H]2CC(=O)N[C@@H](Cc3ccccc3)C(=O)N3CCC[C@H]3C(=O)N3CCC[C@H]3C(=O)N2)cc1` [I-AF] was tested, and the “PHA-induced PBMC proliferation, P vs DMSO at appropriate dilution” value was 0.0010.

What follows are compounds tested on mice, carrageenan-induced foot pad edema (assay: Carrageenan-induced foot-pad edema test). Conditions: 4 h after carrageenan; peptides 250 μg i.p., DEX 25 μg i.p., 30 min before; FIGS. 17A-17C.
Format: in vivo, mouse
Procedure: (§1) In this and the air-pouch test, 1.5 mg peptide was dissolved in 300 μl of DMSO, then in 0.9% NaCl to achieve the desired dose (250 μg/0.2 ml or 100 μg/0.2 ml). Carrageenan (Sigma) was dissolved in 0.9% aqueous NaCl (overnight). 50 μl of 2% carrageenan solution was injected intradermally into hind foot pads. The peptides were given in a single 250 μg dose (0.2 ml) per mouse intraperitoneally (i.p.), 30 min before carrageenan administration. Dexamethasone (DEX) (Dexaven, Polfa, Poland), a reference drug, was given i.p. in dose 25 μg per mouse. Control mice were administered i.p. appropriately diluted solvent (DMSO in aqueous NaCl) instead of peptides. The foot pads of “background” (BG) mice were injected with 50 μl of 0.9% aqueous NaCl. Foot pad edema was measured with a spring caliper, 2 h, 3 h and 4 h after administration of carrageenan. The results are presented in FIGS. 17A, 17B and 17C as mean values of the antigen-specific increase of the foot pad thickness measured in 5 mice in each experimental group and expressed in mm ±SE (only results from measurements 4 h following administration of carrageenan are presented in figures). Statistics: FIG. 17A: Control vs: DEX P=0.0001; 4B8M P=0.0001; P25 NS (P=1.0000); P28 NS (P=1.0000); P31 NS (P=0.0528); P35 P=0.0008 (ANOVA of Kruskal-Wallis); FIG. 17B: Statistics: Control vs: P22 NS (P=1.0000); P26 NS (P=1.0000); P27 P=0.0050; P30 P=0.0004; P33-b NS (P=1.0000); SP00-b P=0.0001; P00S-b NS (P=1.0000) (ANOVA of Kruskal-Wallis); FIG. 17C: Statistics: Control vs: P21 P=0.0147; P23-2 P=0.0083; P24 P=0.0001; P29 NS (P=0.9999); P32 P=0.0001; P33 NS (P=0.6806); P34 NS (P=0.1920) (ANOVA).

Going from `O=C1C[C@H](Cc2ccccc2)NC(=O)[C@@H]2C[C@@H]3CCCC[C@@H]3N2C(=O)[C@@H]2CCCN2C(=O)[C@H](Cc2ccccc2)N1` [I-Y] (cyclo(FP[Oic][β3hF])) to `CC(C)(C)OC[C@@H]1NC(=O)[C@H](Cc2ccccc2)NC(=O)C[C@H](Cc2ccccc2)NC(=O)[C@@H]2CCCN2C1=O` [I-AL] (cyclo(FS(tBu)P[β3hF])), the “foot pad edema (increase of foot pad thickness), P vs Control” value falls from 1.0000 to 0.0001.

Going from `CC(C)(C)Oc1ccc(C[C@H]2CC(=O)N[C@@H](Cc3ccccc3)C(=O)N3CCC[C@H]3C(=O)N3CCC[C@H]3C(=O)N2)cc1` [I-AF] to `C[C@@H]1C[C@H]2[C@@H]3CCC4=CC(=O)C=C[C@]4(C)[C@@]3(F)[C@@H](O)C[C@]2(C)[C@@]1(O)C(=O)CO` [DEX, dexamethasone, reference compound], the “foot pad edema (increase of foot pad thickness), P vs Control” value falls from 1.0000 to 0.0001.

What follows are compounds tested on mice, carrageenan air pouch (assay: Carrageenan air-pouch test (exudate cell number)). Conditions: peptides 100 μg i.p. one hour before carrageenan, 24 h; FIGS. 18A-18B.
Format: in vivo, mouse
Procedure: as §1
Air pouches were formed by subdermal injection into the dorsal region (in a halothane anesthesia) of 5 cm^3 of air (needle 23G x 11/4, 5 ml syringe). On day 3 the air pouches were given an additional 2 ml of air and an inflammatory process was elicited by an intra-pouch injection of 1% of carrageenan in 0.5 ml of 0.9% aqueous NaCl. The peptides were given i.p. at a dose of 100 μg one hour before carrageenan injection into the air pouch. The mice from the “background” (BG) group were given 0.9% aqueous NaCl i.p. and 0.9% aqueous NaCl into the air pouches. Control mice were given appropriately diluted DMSO i.p. and carrageenan into the air pouches. 24 h after carrageenan injection, the mice were sacrificed by cervical dislocation, the air pouches were supplemented with 1 ml of 0.9% aqueous NaCl and the exudates from the air pouches were aspirated using a syringe. The exudates were diluted with 0.9% aqueous NaCl and the cells were counted in a Bürker hemocytometer. Data are presented in FIGS. 18A and 18B as the mean values from 10 mice/group (cell number×10^6 per mouse) ±SE. Then the cells were centrifuged and 0.1 ml of the supernatant was saved for TNF-α determination (see Determination of TNF-α activity, above). The cell pellets were used to perform smears on microscopic glasses, which were stained with Giemsa and May-Grünwald reagents for evaluation of mast cell degranulation. Cell analysis was performed by a histologist using a light microscope and 1000× magnification. The content of intact and degranulated mast cells is given in percentage (mean values from 10 mice/group) ±SE. Statistics: FIG. 18A: BG vs Control P=0.0000; Control vs: DEX P=0.0034; 4B8M P=0.0005; P22 NS (P=0.7275); P26 P=0.0032; P27 NS (P=0.0659); P35 NS (P=1.0000) (ANOVA of Kruskal-Wallis); FIG. 18B: Control vs: P21 NS (P=0.322); P23-2 P=0.0020; P24 P=0.0001; P25 P=0.0418; P28 NS (P=0.3502); P29 NS (P=0.0582); P30 P=0.0006; P31 P=0.0078; P32 P=0.0340; P33 NS (P=0.9993); P34 NS (p=0.0566) (ANOVA).

First: O=C1C[C@H](Cc2ccccc2)NC(=O)[C@@H]2C[C@@H]3CCCC[C@@H]3N2C(=O)[C@@H]2CCCN2C(=O)[C@H](Cc2ccccc2)N1 [I-Y] (cyclo(FP[Oic][β3hF]))
Second: C[C@@H]1C[C@H]2[C@@H]3CCC4=CC(=O)C=C[C@]4(C)[C@@]3(F)[C@@H](O)C[C@]2(C)[C@@]1(O)C(=O)CO [DEX, dexamethasone, reference compound]
The “air pouch exudate cell number, P vs Control” value of the first is lower: 0.0032 for the first, 0.0034 for the second.

The compounds below were run on human PBMC (assay: Toxicity test: PBMC survival in 24 h culture (MTT)). Conditions: 1 μg/ml, ANOVA, FIGS. 8A-8B.

Going from `CC(C)(C)Oc1ccc(C[C@@H]2NC(=O)C[C@H](Cc3ccccc3)NC(=O)[C@@H]3CCCN3C(=O)[C@@H]3CCCN3C2=O)cc1` [I-N] (cyclo(PP[β3hF]Y(tBu))) to `O=C1C[C@H](Cc2ccccc2)NC(=O)[C@@H]2CCCN2C(=O)[C@@H]2CCCN2C(=O)[C@H](Cc2c[nH]c3ccccc23)N1` [I-L] (cyclo(PP[β3hF]W)), the “PBMC survival, P vs DMSO at appropriate dilution” value (“PBMC survival, P vs DMSO” for short) falls from 1.0000 to 0.9999.

Same assay, conditions: 10 μg/ml, ANOVA, FIGS. 8A-8F (4B8M repeated per figure)

Compared with `O=C1C[C@H](Cc2ccccc2)NC(=O)[C@@H]2C[C@@H]3CCCC[C@@H]3N2C(=O)[C@@H]2CCCN2C(=O)[C@H](Cc2ccccc2)N1` [I-Y] (cyclo(FP[Oic][β3hF])), `O=C1C[C@H](Cc2ccccc2)NC(=O)[C@@H]2CCCN2C(=O)[C@@H]2CCCN2C(=O)[C@H](Cc2c[nH]c3ccccc23)N1` [I-L] (cyclo(PP[β3hF]W)) is higher in “PBMC survival, P vs DMSO” value: 0.9992 for the first, 1.0000 for the second.

`CC(C)(C)Oc1ccc(C[C@H]2CC(=O)N[C@@H](Cc3ccccc3)C(=O)N3CCC[C@H]3C(=O)N3CCC[C@H]3C(=O)N2)cc1` [I-AF] and `CC(C)(C)Oc1ccc(C[C@@H]2NC(=O)C[C@H](Cc3ccccc3)NC(=O)[C@@H]3CCCN3C(=O)[C@@H]3CCCN3C2=O)cc1` [I-N] (cyclo(PP[β3hF]Y(tBu))) are the same in “PBMC survival, P vs DMSO” value: 1.0000 for the first, 1.0000 for the second.

In the case of `CC(C)(C)OC[C@@H]1NC(=O)[C@H](Cc2ccccc2)NC(=O)C[C@H](Cc2ccccc2)NC(=O)[C@@H]2CCCN2C1=O` [I-AL] (cyclo(FS(tBu)P[β3hF])), the “PBMC survival, P vs DMSO” value is reported as 1.0000.

Same assay, conditions: 100 μg/ml, ANOVA, FIGS. 8A-8F (4B8M repeated per figure)

First: O=C1C[C@H](Cc2ccccc2)NC(=O)[C@@H]2C[C@@H]3CCCC[C@@H]3N2C(=O)[C@@H]2CCCN2C(=O)[C@H](Cc2ccccc2)N1 [I-Y] (cyclo(FP[Oic][β3hF]))
Second: O=C1C[C@H](Cc2ccccc2)NC(=O)[C@@H]2CCCN2C(=O)[C@@H]2CCCN2C(=O)[C@H](Cc2c[nH]c3ccccc23)N1 [I-L] (cyclo(PP[β3hF]W))
The “PBMC survival, P vs DMSO” value of the first is lower: 0.0001 for the first, 0.9957 for the second.

Compared with `CC(C)(C)Oc1ccc(C[C@H]2CC(=O)N[C@@H](Cc3ccccc3)C(=O)N3CCC[C@H]3C(=O)N3CCC[C@H]3C(=O)N2)cc1` [I-AF], `CC(C)(C)Oc1ccc(C[C@@H]2NC(=O)C[C@H](Cc3ccccc3)NC(=O)[C@@H]3CCCN3C(=O)[C@@H]3CCCN3C2=O)cc1` [I-N] (cyclo(PP[β3hF]Y(tBu))) is higher in “PBMC survival, P vs DMSO” value: 0.0090 for the first, 1.0000 for the second.

For `CC(C)(C)OC[C@@H]1NC(=O)[C@H](Cc2ccccc2)NC(=O)C[C@H](Cc2ccccc2)NC(=O)[C@@H]2CCCN2C1=O` [I-AL] (cyclo(FS(tBu)P[β3hF])), the “PBMC survival, P vs DMSO” value was 0.0466.
